In PMC12915296 (Journal of medicinal chemistry, 2025):
Like-named read-outs stand apart in the source and are kept apart here.

Key:
rCB1 receptor = rCB1 receptor (Rattus norvegicus, UniProt P20272); experiment: rCB1 radioligand binding assay, [3H]CP-55,940 competition; details: for increase in binding affinity for CB1 compared to lead AMG315: ratio of Ki values
hCB2 receptor [1] = target: T1, hCB2 receptor (Homo sapiens, UniProt P34972); experiment: β-arrestin 2 recruitment assay; assay type: cell-based; details: for Emax: read-out: hCB2 receptor β-Arrestin 2 Emax
hCB2 receptor [2] = target: T1, hCB2 receptor; experiment: Inhibition of forskolin-stimulated cAMP accumulation, 3xHA-hCB2-CHO cells; assay type: cell-based; details: for Emax: read-out: hCB2 receptor cAMP Emax
hCB2 receptor [3] = target: T1, hCB2 receptor; experiment: hCB2 radioligand binding assay, [3H]CP-55,940 competition, HEK293 membranes; details: for higher affinity for CB2 than the lead compound AMG315: ratio of Ki values
Adult male CD1 mice [4] = experiment: Measurement of rectal temperature; assay type: in vivo; details: for body temperature vs vehicle: i.p., mice
Adult male CD1 mice [5] = experiment: CFA-induced inflammatory pain model, mechanical paw withdrawal thresholds; assay type: in vivo; details: AM251 5 mg/kg i.p. alone, overall
Adult male CD1 mice [6] = experiment: Tail-flick; assay type: in vivo; details: for tail-flick latency in the tail-immersion test vs vehicle: mice, overall
Adult male CD1 mice [7] = experiment: Ring test for catalepsy; assay type: in vivo; details: for immobility time in the ring test vs vehicle: i.p., mice, overall
hCB1 receptor [8] = target: T2, hCB1 receptor (Homo sapiens, UniProt P21554); experiment: cell-based; details: read-out: hCB1 receptor β-Arrestin 2 Emax
hCB1 receptor [9] = target: T2, hCB1 receptor; experiment: cell-based; details: for Emax: read-out: hCB1 receptor cAMP Emax, normalized to maximum CP-55,940 = 100

Sequence of rCB1 receptor (P20272 whole entry): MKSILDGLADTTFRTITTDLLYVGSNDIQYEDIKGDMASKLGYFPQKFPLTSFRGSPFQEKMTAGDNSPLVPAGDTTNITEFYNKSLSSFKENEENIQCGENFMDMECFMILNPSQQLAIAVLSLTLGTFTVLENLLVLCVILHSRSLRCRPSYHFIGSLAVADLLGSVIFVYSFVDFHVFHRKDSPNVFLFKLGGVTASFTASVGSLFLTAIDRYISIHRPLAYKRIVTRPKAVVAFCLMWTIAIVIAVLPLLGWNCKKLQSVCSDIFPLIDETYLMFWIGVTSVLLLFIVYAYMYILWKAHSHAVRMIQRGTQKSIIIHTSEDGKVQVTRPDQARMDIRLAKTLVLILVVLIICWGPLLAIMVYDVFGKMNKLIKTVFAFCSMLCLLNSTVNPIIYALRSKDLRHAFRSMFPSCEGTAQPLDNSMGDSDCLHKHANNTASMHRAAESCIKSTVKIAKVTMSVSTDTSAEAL
T2 sequence (P21554 whole entry): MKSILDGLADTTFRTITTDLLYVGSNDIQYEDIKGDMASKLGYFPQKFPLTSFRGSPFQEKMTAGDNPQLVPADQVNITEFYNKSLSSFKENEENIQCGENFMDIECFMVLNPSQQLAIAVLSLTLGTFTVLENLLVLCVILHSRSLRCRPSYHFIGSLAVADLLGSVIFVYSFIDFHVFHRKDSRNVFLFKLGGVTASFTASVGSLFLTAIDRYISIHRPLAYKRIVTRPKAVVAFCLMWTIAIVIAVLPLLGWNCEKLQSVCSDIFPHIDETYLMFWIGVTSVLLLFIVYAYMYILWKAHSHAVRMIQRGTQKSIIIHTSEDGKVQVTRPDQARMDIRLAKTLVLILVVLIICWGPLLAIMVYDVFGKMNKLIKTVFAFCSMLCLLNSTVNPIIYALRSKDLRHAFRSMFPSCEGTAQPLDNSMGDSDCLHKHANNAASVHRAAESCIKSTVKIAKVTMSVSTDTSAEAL
T1 sequence (P34972 whole entry): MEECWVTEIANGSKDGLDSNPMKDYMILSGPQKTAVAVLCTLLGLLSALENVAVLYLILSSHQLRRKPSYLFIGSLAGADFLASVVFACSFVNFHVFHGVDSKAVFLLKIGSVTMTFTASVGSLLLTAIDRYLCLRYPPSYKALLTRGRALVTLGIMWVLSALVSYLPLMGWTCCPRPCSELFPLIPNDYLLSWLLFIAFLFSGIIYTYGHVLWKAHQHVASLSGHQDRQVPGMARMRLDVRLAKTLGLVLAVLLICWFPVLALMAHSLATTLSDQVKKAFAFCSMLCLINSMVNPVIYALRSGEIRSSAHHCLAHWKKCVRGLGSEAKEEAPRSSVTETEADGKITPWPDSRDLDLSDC

C[C@H](/C=C\C/C=C\C/C=C\CCCC(=O)N[C@H](C)CO)/C=C\CCCCCO [Compound 18, (S,5Z,8Z,11Z,14Z)-20-Hydroxy-N-((R)-1-hydroxypropan-2-yl)-13-methylicosa-5,8,11,14-tetraenamide]
Ki (rCB1 receptor; read-out: rCB1 receptor Ki, rat brain membranes, [3H]CP-55,940, (± 95% CI)): 29 nM

CCCCC/C=C\C/C=C\C/C=C\C/C=C\CCCC(=O)NCCO [AEA, N-arachidonoylethanolamide, reference compound]
Emax (hCB2 receptor [1]): 36% | Emax (hCB2 receptor [2]): 27%

C[C@H](/C=C\C/C=C\C/C=C\CCCC(=O)N[C@H](C)CO)/C=C\CCCCCO[N+](=O)[O-] [Compound 16b, (S,6Z,9Z,12Z,15Z)-20-(((R)-1-Hydroxypropan-2-yl)amino)-8-methyl-20-oxoicosa-6,9,12,15-tetraen-1-yl Nitrate]
Ki (hCB2 receptor [3]): 10.9 nM | Ki (rCB1 receptor): 1.7 nM | increase in binding affinity for CB1 compared to lead AMG315 (rCB1 receptor): 2–7 fold

C[C@H](/C=C\C/C=C\C/C=C\CCCC(=O)N[C@H](C)CO)/C=C\CCCCCC#N [Compound 16a, (S,5Z,8Z,11Z,14Z)-20-Cyano-N-((R)-1-hydroxypropan-2-yl)-13-methylicosa-5,8,11,14-tetraenamide]
Ki (hCB2 receptor [3]): 2.2 nM | higher affinity for CB2 than the lead compound AMG315 (hCB2 receptor [3]): 52–80 fold | Ki (rCB1 receptor): 1.4 nM | increase in binding affinity for CB1 compared to lead AMG315 (rCB1 receptor): 2–7 fold

Cc1c(C(=O)NN2CCCCC2)nn(-c2ccc(Cl)cc2Cl)c1-c1ccc(I)cc1 [AM251, 1-(2,4-dichlorophenyl)-5-(4-iodophenyl)-4-methyl-N-1-piperidinyl-1H-pyrazole-3-carboxamide, reference compound]
effect of pretreatment on hypothermic effect of AM12814 (Adult male CD1 mice [4]; AM251 5 mg/kg i.p. before AM12814 1 mg/kg i.p.): abolished | ipsilateral paw withdrawal thresholds, AM251-Veh vs Veh–Veh (Adult male CD1 mice [5]): modestly elevated | effect of pretreatment on tail-flick antinociception of AM12814 (Adult male CD1 mice [6]; AM251 5 mg/kg i.p. before AM12814 3 mg/kg i.p.): reduced the overall antinociceptive efficacy | effect of pretreatment on AM12814-induced catalepsy in the ring test (Adult male CD1 mice [7]; AM251 5 mg/kg ip before AM12814 1 mg/kg ip): blocked

CCCCC/C=C\[C@H](C)/C=C\C/C=C\C/C=C\CCCC(=O)N[C@H](C)CO [AMG315, (R)-N-(1-Methyl-2-hydroxyethyl)-13-(S)-methyl-arachidonamide, reference compound]
Emax (hCB1 receptor [8]): 38% | Emax (hCB1 receptor [9]): 80.5% | Emax (hCB2 receptor [1]): 36% | Emax (hCB2 receptor [2]): 18%

C[C@H](/C=C\C/C=C\C/C=C\CCCC(=O)N[C@H](C)CO)/C=C\CCCCC(F)(F)F [Compound 12, (S,5Z,8Z,11Z,14Z)-20,20,20-Trifluoro-N-((R)-1-hydroxypropan-2-yl)-13-methylicosa-5,8,11,14-tetraenamide]
Emax (hCB1 receptor [8]): 22% | body temperature vs vehicle (Adult male CD1 mice [4]; 0.3 mg/kg): did not alter body temperature at any postinjection time point | body temperature vs vehicle (Adult male CD1 mice [4]; 1 mg/kg): reducing body temperature | body temperature vs vehicle (Adult male CD1 mice [4]; 3 mg/kg): reducing body temperature | earliest time of reduced body temperature postinjection (Adult male CD1 mice [4]; 1 or 3 mg/kg): 10 min | efficacy for the cyclase pathway relative to β-arrestin 2 recruitment in CB1 (hCB1 receptor [9]; Emax cAMP vs Emax β-arrestin 2): 3 fold | hCB1 receptor cAMP Emax (hCB1 receptor [9]; normalized to maximum CP-55,940 = 100): 67.5% | Emax (hCB1 receptor [9]): 67% | tail-flick latency in the tail-immersion test vs vehicle (Adult male CD1 mice [6]; 1 mg/kg, i.p.): increased tail-flick latency | tail-flick latency in the tail-immersion test vs vehicle (Adult male CD1 mice [6]; 3 mg/kg, i.p.): increased tail-flick latency | tail-flick latency in the tail-immersion test vs vehicle (Adult male CD1 mice [6]; low dose, 0.1 mg/kg i.p.): increased tail-flick latency | EC50 (hCB2 receptor [1]): 5.6 nM | Emax (hCB2 receptor [1]): 28% | Ki (hCB2 receptor [3]): 3.4 nM | higher affinity for CB2 than the lead compound AMG315 (hCB2 receptor [3]): 52–80 fold | immobility time in the ring test vs vehicle (Adult male CD1 mice [7]; 0.3 mg/kg): did not differ reliably from vehicle overall | immobility time in the ring test vs vehicle (Adult male CD1 mice [7]; 1 mg/kg): increased immobility time | immobility time in the ring test vs vehicle (Adult male CD1 mice [7]; 3 mg/kg): increased immobility time | EC50 (hCB2 receptor [2]): 22 nM | Emax (hCB2 receptor [2]): 29% | Ki (rCB1 receptor): 0.7 nM | increase in binding affinity for CB1 compared to lead AMG315 (rCB1 receptor): 10 fold

C[C@H](/C=C\C/C=C\C/C=C\CCCC(=O)N[C@H](C)CO)/C=C\CCCCCBr [Compound 15, (S,5Z,8Z,11Z,14Z)-20-Bromo-N-((R)-1-hydroxypropan-2-yl)-13-methylicosa-5,8,11,14-tetraenamide]
Ki (hCB2 receptor [3]): 5.3 nM | Ki (rCB1 receptor): 1.1 nM | increase in binding affinity for CB1 compared to lead AMG315 (rCB1 receptor): 2–7 fold

C[C@H](/C=C\C/C=C\C/C=C\CCCC(=O)N[C@H](C)CO)/C=C\CCCCCF [Compound 21, (S,5Z,8Z,11Z,14Z)-20-Fluoro-N-((R)-1-hydroxypropan-2-yl)-13-methylicosa-5,8,11,14-tetraenamide]
Ki (hCB2 receptor [3]): 22.2 nM | Ki (rCB1 receptor): 4.2 nM | increase in binding affinity for CB1 compared to lead AMG315 (rCB1 receptor): 2–7 fold
